Entries after “also recorded” stand apart in the source; their conditions may differ.
What was measured:
HS-SY-II xenograft = test: Gene expression changes in vivo in HS-SY-II xenograft model (RT-PCR); set-up: species or system mice; conditions: 500 mg/kg oral twice daily for 7 days; 3 hours after last dose
Protocol: (§1) Tumor samples were collected at approximately 3 hours after the last dose from mice used in analysis for PK values and PD alterations. The tumor samples were stored using RNAlater (AM7020, Life technologies). Total RNA isolation and the reverse transcription were performed by RNeasy Mini Kit (74104, Qiagen) and High capacity cDNA Reverse Transcription kit (4368814, Life technologies) according to the manufacturer's instruction. The cDNA samples were used for real time-PCR as described above.
as §1, with “above. […] Additionally or alternatively, total RNAs were isolated from frozen tumor samples. The TruSeq' RNA Sample Prep Kit (Illumina) was used to build cDNA library for paired-end sequencing on the Illumina HiSeq (details described in Illumina TruSeq RNA Sample Preparation Guide). […] Paired-end reads from ˜50M clusters per sample were generated using TruSeq SBS kit on the Illumina HiSeq.” for “above.”

HS-SY-II cells [1] = test: Gene expression changes in vitro (RT-PCR, normalized to GAPDH); format: cell-based, human; conditions: HS-SY-II in vitro culture
Protocol: ATF3, EGR1, CDKN2A and GAPDH expression were analyzed by using the TaqMan Gene Expression Assays (Life technologies, 4331182) and the TaqMan Probes (Hs00231069_ml, Hs00152928_ml, Hs00233365_ml, and Hs99999905_ml, respectively).

HS-SY-II cells [2] = test: Adherent cell line 14-day long-term proliferation assay (CellTiter-Glo); format: cell-based, human
Protocol: (§2) 96-well plating for 7 day assay: For each adherent cell line, plated cells in a volume of 100 μL in 96-well plates, to be treated in triplicate, either in the evening (to treat with compound the following day) or in morning (to treat with compound in the evening), to allow cells to attach to plates before compound treatment.
(§3) 6-well plates to be split for 7-14 day assay: Plated 2mL of cells at the correct density in each well of the 6-well plate. Calculated the correct density from the 96-well plate growth curve by multiplying the 96-well density by 30. The factor 30 came from growth area of the 6-well plate divided by the growth area of the 96-well plate (9.5cm^2/0.32cm^2=29.7, rounded up to 30), which corresponds to 30-fold more surface area in a 6-well vs. a 96-well plate.
(§4) Day 0: Treated with compound or DMSO by removing media and adding back either […] (for 96-well plate) or 2 mL (for 6-well plate) media with the correct dilutions of compound/DMSO. Table 1 includes an example of 96-well plate map. Plates were incubated for 96 hours.
(§5) Read one 96-well plate with CellTiter-Glo®, for a Day 0 reading (media change not necessary for this plate).
(§6) Day 4: Read one 96-well plate with CellTiter-Glo® for a Day 4 reading (media change not necessary for this plate before reading). Replaced media with fresh media containing compound on Day 4 in 96-well plates and 6-well plates.
(§7) Day 7: read final 96-well plate with CellTiter-Glo®.
(§8) Counted individual wells of 6-well plates, and replated cells to initial plating density in 96-well plates, as described above.
(§9) Repeated steps for Days 0-7 for Days 7-14 of the proliferation assay.
(§10) Particularly, approximately 12 hours before compound treatment, HS-SY-II or SW982 cells were plated at the density of 24,000 cells/well and 7,500 cells/well, respectively in 6-well plates. On day 0, cells were treated with either DMSO or compound starting at 10 μmol/L and decreasing in fourfold dilutions. On day 7, the cells in 6-well plates were trypsinized, counted by TC10 automated cell counter (Bio-Rad, Richmond, Calif.) and replated at the density of 800 cells/well and 250 cells/well for HS-SY-II and SW982, respectively in 96-well plates in triplicate. The cells were allowed to adhere to the plate overnight, and treated with either DMSO or compound as on Day 0. On days 0, 7, 11, and 14, cell viability was determined by CellTiter-Glo® Luminescent Cell Viability Assay (Promega) with EnVision 2103 Multilabel Reader (Perkin-Elmer, Wellesley, Mass.). Compound/media was changed with new one on Day 4 and 11. The ratios of the measured values on Days 7, 11, and 14 to that of day 7 were used to plot proliferation from day 7 to day 14, and to calculate the IC50 values on Day 14. […]

SW982 cells [3] = test: as above; format: cell-based, human
Protocol: as §2, §3, §4, §5, §6, §7, §8, §9, §10

SW982 cells [4] = conditions: SW982 in vitro culture
[5] = tested on: PDX of synovial sarcoma tumors; test: Tumor volume in patient-derived xenografts (PDX) of synovial sarcoma, 35 days dosing; format: in vivo, athymic nude mice; conditions: two synovial sarcoma PDX; oral 125, 250 or 500/400 mg/kg for 35 days
Protocol: FIGS. 11A and 11C show mean in vivo tumor volumes for athymic nude mice bearing one of two different PDX of synovial sarcoma tumors. FIGS. 11B and 11D show percent survival for mice bearing a PDX. Mice were dosed with either vehicle (oral for 35 days), Compound A (oral: 125 mg/kg, 250 mg/kg, or 500/400 mg/kg for 35 days) or Doxorubicin (iv: 3 mg/kg, once a week for 3 weeks). FIGS. 11A and 11B show data from mice bearing PDX from high-grade spindle cell sarcoma. FIGS. 11C and 11D show data from mice bearing PDX.

## CCN(c1cc(-c2ccc(CN3CCOCC3)cc2)cc(C(=O)NCc2c(C)cc(C)[nH]c2=O)c1C)C1CCOCC1 [Compound A]
HS-SY-II xenograft
  CDKN2A expression in tumor: significantly upregulated
HS-SY-II cells [1]
  ATF3 and EGR1 expression: upregulated
  CDKN2A expression: Dose- and time-dependent CDKN2A upregulation
HS-SY-II cells [2]
  sensitivity (cell proliferation / viability): high sensitivity; also recorded: highly sensitive
SW982 cells [3]
  sensitivity (cell proliferation / viability): did not; also recorded: not sensitive
SW982 cells [4]
  ATF3 and EGR1 expression: not in SW982
[5]
  tumor volume: dose-related tumor volume decrease

Source: US20220218714A1, “METHOD OF TREATING CANCER” (Epizyme, Inc., priority 2013, published 2022)
